Assay results: ChEMBL document CHEMBL3227967, “Quantitative structure-activity relationships in 1-aryl-2-(alkylamino)ethanol antimalarials” (J Med Chem, 1979)

System: Plasmodium berghei
Assay: Antimalarial activity against Plasmodium berghei
Format: functional

Row | Compound | log(1/C)
1 | CCCCN(CCCC)CC(O)c1cc2cc(Cl)c(Cl)cc2c2c(Cl)cc(Cl)cc12 (stereo not drawn) | 4.18
2 | OC(CC1CCCCN1)c1c2c(nc3c(Cl)cc(Cl)cc13)-c1ccc(Cl)cc1CC2 (stereo not drawn) | 3.69
3 | CCN(CC)CC(O)c1cc2cc(Cl)ccc2c2cc(Cl)ccc12 (stereo not drawn) | 4.06
4 | Cc1cc(C)c2nc(Oc3ccc(Cl)cc3)cc(C(O)CC3CCCCN3)c2c1 (stereo not drawn) | 2.72
5 | CCCCN(CCCC)CC(O)c1cc(C(F)(F)F)nc2c(C(F)(F)F)cccc12 (stereo not drawn) | 3.6
6 | CCCCCCCN(CCCCCCC)CC(O)c1cc2cccc(Cl)c2c2ccccc12 (stereo not drawn) | 2.82
7 | OC(CC1CCCCN1)c1cc2cc(Cl)c(Cl)cc2c2cc(Br)ccc12 (stereo not drawn) | 3.91
8 | CCCCN(CCCC)CC(O)c1cc2ccc(Br)cc2c2cc(Br)ccc12 (stereo not drawn) | 3.63
9 | OC(CC1CCCCN1)c1cc(C(F)(F)F)nc2c(F)cccc12 (stereo not drawn) | 2.36
10 | CCCCN(CCCC)CC(O)c1cccc2cc3cccc(Cl)c3cc12 (stereo not drawn) | 2.26
11 | CCCN(CCC)CC(O)c1cc2ccc(C(F)(F)F)cc2c2cc(Cl)c(Cl)cc12 (stereo not drawn) | 4.3
12 | CCCCN(CCCC)CC(O)c1cc(-c2ccc(F)cc2)nc(-c2ccc(F)cc2)c1 (stereo not drawn) | 3.23
13 | CCCCN(CCCC)CC(O)c1ccc(Cl)c2nc(-c3ccccc3)ccc12 (stereo not drawn) | 2.47
14 | CN1CCCCC1CC(O)c1cc(-c2ccccc2)nc2ccc(Cl)cc12 (stereo not drawn) | 2.7
15 | CCCCCCCN(CCCCCCC)CC(O)c1cc2ccccc2c2cc(Br)ccc12 (stereo not drawn) | 3.55
16 | CCCCN(CCCC)CC(O)c1cc(-c2ccc(Cl)cc2)nc(-c2ccc(OC)cc2)c1 (stereo not drawn) | 2.84
17 | CCCCCCCN(CCCCCCC)CC(O)c1cc2ccc(Cl)cc2c2ccccc12 (stereo not drawn) | 2.44
18 | CCNCC(O)c1cc(-c2ccc(C(F)(F)F)cc2)nc(-c2ccc(C(F)(F)F)cc2)c1 (stereo not drawn) | 3.72
19 | CCCCN(CCCC)CC(O)c1cc2ccc(C(F)(F)F)cc2c2ccsc12 (stereo not drawn) | 2.81
20 | OC(CNC1CCCCC1)c1cc2ccc(Cl)cc2c2cc(Cl)ccc12 (stereo not drawn) | 3.36
21 | CCCCN(CCCC)CC(O)C1CC(c2ccc(Cl)c(Cl)c2)=Nc2c(Cl)cc(Cl)cc21 (stereo not drawn) | 3.6
22 | CCCCN(CCCC)CCC(O)c1cc2c(Cl)cc(Cl)cc2c2cc(C(F)(F)F)ccc12 (stereo not drawn) [HALOFANTRINE] | 4.47

Row | Compound | log(1/C)
23 | CCCCCCCN(CCCCCCC)CC(O)c1ccc2ccc3cccc(C(F)(F)F)c3c2c1 (stereo not drawn) | 2.58
24 | CCCCCCN(CCCCCC)CC(O)c1cc(-c2ccc(Cl)cc2)nc2cc(Cl)ccc12 (stereo not drawn) | 3.28
25 | COc1ccc(-c2cc(C(O)CC3CCCCN3)c3ccccc3n2)cc1 (stereo not drawn) | 2.53
26 | CCCCN(CCCC)CCC(O)c1cc(C(F)(F)F)nc2ccc(C(F)(F)F)cc12 (stereo not drawn) | 3.31
27 | OC(CN1CCCCC1)c1cc(-c2ccc(F)cc2)nc2cc(F)ccc12 (stereo not drawn) | 2.45
28 | CCCCN(CCCC)CC(O)c1cc(-c2ccc(Cl)c(Cl)c2)cc2cc(Cl)ccc12 (stereo not drawn) | 4.81
29 | OC(CC1CCCCN1)c1cc2cc(Cl)cc(Cl)c2c2cc(C(F)(F)F)ccc12 (stereo not drawn) | 4.43
30 | CCN(CC)CC(O)c1cc(-c2ccc(OC)c(OC)c2)nc2cc(Cl)ccc12 (stereo not drawn) | 2.81
31 | CCCCN(CCCC)CC(O)c1cc(-c2cccc(I)c2)nc2c(Cl)cc(Cl)cc12 (stereo not drawn) | 3.16
32 | CCCCN(CCCC)CC(O)c1cc(-c2ccc(Cl)cc2)cc2ccc(OC)cc12 (stereo not drawn) | 3.9
33 | CCCCNCC(O)c1cc(-c2ccc(C(F)(F)F)cc2)nc(-c2ccc(C(F)(F)F)cc2)c1 (stereo not drawn) | 4.16
34 | CCCN(CCC)CC(O)c1cc2ccc(Br)cc2c2cc(Br)ccc12 (stereo not drawn) | 3.95
35 | CCCCCCN(CCCCCC)CC(O)c1cc(-c2cccc(C(F)(F)F)c2)nc2c(Cl)cc(Cl)cc12 (stereo not drawn) | 3.32
36 | CCCCCCN(CCCCCC)CC(O)c1cc(-c2ccc(Cl)cc2)nc2cc(Cl)c(OC)cc12 (stereo not drawn) | 3.07
37 | CCCCN(CCCC)CC(O)c1cc(-c2ccc(Cl)cc2)nc2c(C(F)(F)F)cc(Cl)cc12 (stereo not drawn) | 4.61
38 | CCCNCCC(O)c1cc(C(F)(F)F)nc2c(C(F)(F)F)cccc12 (stereo not drawn) | 2.82
39 | CCCCN(CCCC)CC(O)c1c(C)cnc2c1ccc1ccccc12 (stereo not drawn) | 2.15
40 | CCCCCCN(CCCCCC)CC(O)c1cc(-c2ccc(Cl)c(Cl)c2)nc2cc(C(F)(F)F)ccc12 (stereo not drawn) | 3.68
41 | CCCCCCCN(CCCCCCC)CC(O)c1cc2cc(Cl)ccc2c2cc(C(F)(F)F)ccc12 (stereo not drawn) | 3.68
42 | OC(CC1CCCCN1)c1cc2cc(C(F)(F)F)ccc2c2ccc(Cl)cc12 (stereo not drawn) | 4.19
43 | CCCCCCCCN(CCCCCCCC)CCC(O)c1cc2c(O)cccc2c2ccccc12 (stereo not drawn) | 2.65
44 | CC(C)N(C)CC(O)c1cc(-c2ccc(Cl)cc2)nc2c(Cl)cc(Cl)cc12 (stereo not drawn) | 3.72

Row | Compound | log(1/C)
45 | Cc1ccc(-c2cc(C(O)CN3CCCCC3)c3cc(C)ccc3n2)cc1 (stereo not drawn) | 2.42
46 | CCCCN(CCCC)CC(O)c1cccc2c1ccc1cc(Cl)c(Cl)cc12 (stereo not drawn) | 2.96
47 | CCCCN(CCCC)CC(O)c1cc2c(Cl)cc(Cl)cc2c2cc(Cl)sc12 (stereo not drawn) | 3.53
48 | CCCCCN(CCCCC)CC(O)c1cc2cc(Cl)ccc2c2cc(Cl)ccc12 (stereo not drawn) | 4.01
49 | CCN(CC)CC(O)c1cc2cc(Cl)cc(Cl)c2nc1-c1ccc(Cl)cc1 (stereo not drawn) | 2.47
50 | CCCCCCCN(CCCCCCC)CC(O)c1ccc(Cl)c2cc3cccc(Cl)c3cc12 (stereo not drawn) | 3.56
51 | CCCCCCN(CCCCCC)CC(O)c1cc(-c2ccc(OC)c(OC)c2)nc2cc(Cl)ccc12 (stereo not drawn) | 3.32
52 | CCCCN(CCCC)CC(O)c1cc2cc(S(C)(=O)=O)ccc2c2cc(Cl)c(Cl)cc12 (stereo not drawn) | 3.74
53 | CCCCN(CCCC)CC(O)c1cc(-c2ccc(Cl)cc2)nc2ccc(F)cc12 (stereo not drawn) | 3.11
54 | CCCCN(CCCC)CC(O)c1cc(-c2ccc(Cl)cc2)nc(-c2ccc(Cl)cc2)c1.O=C(O)CCC(=O)O (stereo not drawn) | 3.71
55 | CCCCCCCN(CCCCCCC)CC(O)c1cc(-c2ccc(Cl)cc2)cc2cc(Cl)c(OC)cc12 (stereo not drawn) | 3.31
56 | CCCCCCCN(CCCCCCC)CC(O)c1cc(-c2ccc(Cl)c(Cl)c2)cc2cc(Cl)c(OC)cc12 (stereo not drawn) | 2.58
57 | CC(C)CCCN(CCC(C)C)CC(O)c1cc(-c2ccc(C(F)(F)F)cc2)nc(C(F)(F)F)c1 (stereo not drawn) | 3.04
58 | CCCCN(CCCC)CC(O)c1cc2cc(Cl)cc(Cl)c2c2cc(C(F)(F)F)ccc12 (stereo not drawn) | 3.74
59 | Cc1cccc2c(C(O)CC3CCCCN3)cc(-c3ccccc3)nc12 (stereo not drawn) | 3.38
60 | CCCCN(CCCC)CC(O)c1cc2ccc(F)cc2c2ccccc12 (stereo not drawn) | 2.43
61 | CCCCN(CCCC)CC(O)c1cc(Oc2ccc(Cl)cc2)cc2c(Cl)cc(Cl)cc12 (stereo not drawn) | 2.57
62 | CCCCCCCN(CCCCCCC)CC(O)c1cc2c(Cl)cc(Cl)cc2c2sccc12 (stereo not drawn) | 2.89
63 | CCCCN(CCCC)CC(O)c1cccc2cc3c(Cl)cccc3cc12 (stereo not drawn) | 2.1
64 | CCCCCCCN(CCCCCCC)CC(O)c1cc2ccc(Cl)cc2c2cc(OC)ccc12 (stereo not drawn) | 2.98
65 | CCCCN(CCCC)CC(O)c1cc(Cl)cc2ccc(-c3ccc(Cl)cc3)nc12 (stereo not drawn) | 2.9
66 | CCCCCCN(CCCCCC)CC(O)c1cc(-c2ccc(Cl)cc2)nc2cc(C(F)(F)F)ccc12 (stereo not drawn) | 2.85

Row | Compound | log(1/C)
67 | CCCCN(CCCC)CC(O)c1cc2c(Cl)cc(Cl)cc2c2cc(C(F)(F)F)ccc12 (stereo not drawn) | 4.29
68 | CCCCN(CCCC)CC(O)c1cc2c(Cl)cc(Cl)cc2c2sccc12 (stereo not drawn) | 3.28
69 | OC(CC1CCCCN1)c1cc2cc(Cl)ccc2c2cc(Cl)ccc12 (stereo not drawn) | 4.12
70 | CCCCCCCN(CCCCCCC)CC(O)c1cc2ccc(I)cc2c2cc(C(F)(F)F)ccc12 (stereo not drawn) | 3.55
71 | OC(CC1CCCCN1)c1cc2ccccc2c2c(C(F)(F)F)cccc12 (stereo not drawn) | 3.73
72 | CCCCN(CCCC)CC(O)c1c(OC)c2cc(Br)ccc2c2ccc(Br)cc12 (stereo not drawn) | 3.94
73 | CCCCCCN(CCCCCC)CC(O)c1cc(-c2ccc(OC)cc2)nc2cc(Cl)c(Cl)cc12 (stereo not drawn) | 3.35
74 | CCCCN(CCCC)CC(O)c1cc(-c2ccc(C)cc2)nc2c(C)cc(C)cc12 (stereo not drawn) | 2.72
75 | OC(CC1CCCCN1)c1cc2c(Cl)cc(Cl)cc2c2ccc(Cl)cc12 (stereo not drawn) | 3.79
76 | CCCCN(CCCC)CC(O)c1cc2cc(Cl)ccc2c2cc(Cl)ccc12 (stereo not drawn) | 3.81
77 | OC(CC1CCCCN1)c1cc(C(F)(F)F)nc2ccc(C(F)(F)F)cc12 (stereo not drawn) | 3.65
78 | CCCCCCCNCC(O)c1cc(-c2ccc(C(F)(F)F)cc2)nc(-c2ccc(C(F)(F)F)cc2)c1 (stereo not drawn) | 3.67
79 | CCCCCCCN(CCCCCCC)CC(O)c1cc2c(Cl)cccc2c2ccccc12 (stereo not drawn) | 2.56
80 | CCCCN(CCCC)CC(O)c1cccc2ccc3cccc(Br)c3c12 (stereo not drawn) | 2.23
81 | CCCCN(CCCC)CC(O)c1cc(-c2ccc(Cl)cc2)cc2cc(Cl)ccc12 (stereo not drawn) | 4.24
82 | CCCCN(CCCC)CC(O)c1cc2sccc2c2ccsc12 (stereo not drawn) | 2.1
83 | CCCCN(CCCC)CC(O)c1cc(C(C)(C)C)nc2ccc(Cl)cc12 (stereo not drawn) | 2.91
84 | OC(CC1CCCCN1)c1cc2ccc(Cl)c(Cl)c2c2cc(C(F)(F)F)ccc12 (stereo not drawn) | 4.4
85 | CCN(CC)CC(O)c1cc(-c2ccc(Cl)c(Cl)c2)nc2ccc(OC)cc12 (stereo not drawn) | 3.15
86 | CCCCCCCN(CCCCCCC)CC(O)c1cc2c(Cl)cc(Cl)cc2c2cc(Cl)sc12 (stereo not drawn) | 2.67
87 | CCCCN(CCCC)CC(O)c1cc(-c2ccccc2)nc(-c2ccccc2)c1 (stereo not drawn) | 2.51
88 | CCCC(CCC)NCC(O)c1cc(/C=C/c2ccc(C(F)(F)F)cc2)nc(/C=C/c2ccc(C(F)(F)F)cc2)c1 (stereo not drawn) | 4.24
